PubChem BioAssay (NCI)
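Protocol summary: plate cells (96-well), add compound at 5 concentrations, incubate 48 h, interpolate endpoints linearly. GI50: concentration for 50% inhibition of growth. The concentration for full growth arrest is given as TGI.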

What was measured:
Assay in all cases: DTP human tumour cell line panel, 48 h
EKVX NSCLC = system: EKVX NSCLC
LOX IMVI melanoma = system: LOX IMVI melanoma
SNB-75 CNS = system: SNB-75 CNS
T-47D breast = system: T-47D breast
786-0 renal = system: 786-0 renal
KM12 colon = system: KM12 colon
HCC-2998 colon = system: HCC-2998 colon
NCI/ADR-RES ovarian = system: NCI/ADR-RES ovarian
OVCAR-5 ovarian = system: OVCAR-5 ovarian
RXF 393 renal = system: RXF 393 renal

Row | SMILES | GI50 (EKVX NSCLC) [µM] | TGI (EKVX NSCLC) [µM] | GI50 (LOX IMVI melanoma) [µM] | TGI (LOX IMVI melanoma) [µM] | GI50 (SNB-75 CNS) [µM] | TGI (SNB-75 CNS) [µM] | GI50 (T-47D breast) [µM] | TGI (T-47D breast) [µM] | GI50 (786-0 renal) [µM] | TGI (786-0 renal) [µM] | GI50 (KM12 colon) [µM] | TGI (KM12 colon) [µM] | GI50 (HCC-2998 colon) [µM] | TGI (HCC-2998 colon) [µM] | GI50 (NCI/ADR-RES ovarian) [µM] | TGI (NCI/ADR-RES ovarian) [µM] | GI50 (OVCAR-5 ovarian) [µM] | TGI (OVCAR-5 ovarian) [µM] | TGI (RXF 393 renal) [µM] | GI50 (RXF 393 renal) [µM]
1 | COc1ccc(/C(=N/O)c2cc(OC)c(OC)c(OC)c2)c(OC)c1N | 6.64 | > 100 | 7.28 | > 100 | 2.21 | > 100 | 26.2 | > 100 | 12.7 | > 100 | 3.27 | > 100 | 4.29 | > 100 | – | – | – | – | – | –
2 | CCCCN1CCN(c2ccc3nc(-c4ccc5nc(-c6ccc(OCC)c(OCC)c6)[nH]c5c4)[nH]c3c2)CC1 | – | – | – | – | 0.65 | 2.01 | 1.36 | 7.88 | 1.41 | 2.84 | 1.42 | 2.99 | – | – | > 100 | > 100 | 1.9 | 3.4 | – | –
3 | O=[N+]([O-])c1ccc(COc2cccc3cccnc23)cc1 | – | 70.3 | – | 29.2 | – | 78.3 | – | – | – | 90.6 | – | 96.5 | – | > 100 | – | – | – | > 100 | > 100 | –
4 | COc1ccc(-c2nnc(Nc3nc(O)c(C4=c5cc(F)ccc5=NC4=O)s3)o2)cc1 | 96.1 | > 100 | 40 | > 100 | – | – | 93.2 | > 100 | 23.4 | 56.3 | 43.1 | > 100 | 84.3 | > 100 | 49.7 | > 100 | > 100 | > 100 | > 100 | 65.8
5 | COC[C@@H](N=CN1CCc2cc(OC)c(OC)cc2C1)C(C)(C)C | – | > 100 | – | – | – | > 100 | – | – | – | > 100 | – | > 100 | – | – | – | – | – | – | > 100 | –
6 | Cc1ccc(C)c2c(N=Nc3ccccc3[N+](=O)[O-])c(O)[nH]c12 | – | > 100 | – | > 100 | – | > 100 | – | > 100 | – | > 100 | – | > 100 | – | > 100 | – | – | – | > 100 | > 100 | –
7 | Cc1ccc(S(=O)(=O)SCc2ccccc2)cc1 | – | 97.2 | – | 37.2 | – | > 84.2 | – | – | – | 31.4 | – | 57.6 | – | 57.4 | – | – | – | > 100 | 69.2 | –
8 | Cc1ccc2c(CC(=O)O)cc(=O)oc2c1 | – | > 100 | – | > 100 | – | > 100 | – | – | – | > 100 | – | > 100 | – | > 100 | – | – | – | > 100 | > 100 | –
9 | Clc1ccc(C2=NOC3C4CCC(C4)C23)cc1 (stereo not drawn) | – | > 100 | – | – | – | > 100 | – | – | – | > 100 | – | > 100 | – | > 100 | – | – | – | > 100 | – | –
10 | CCCC#CCOC(=O)c1cc([N+](=O)[O-])cc([N+](=O)[O-])c1 | – | > 100 | – | > 100 | – | > 100 | – | > 100 | – | > 100 | – | > 100 | – | > 100 | – | > 100 | – | > 100 | – | –
11 | Brc1ccc(C2SCc3nc4ccccc4n32)cc1 (stereo not drawn) | – | 33.8 | – | 21 | – | 0.745 | – | – | – | 26 | – | 21.1 | – | – | – | – | – | 25.2 | 20.9 | –
12 | O=C(CC1C(=O)Nc2ccccc2S1(=O)=O)Nc1cccc(Cl)c1 (stereo not drawn) | – | 42.2 | – | 28.6 | – | 31.8 | – | – | – | 29.1 | – | – | – | 32.1 | – | – | – | 59.1 | 31.7 | –
13 | C[n+]1c(/C=C/c2ccc(/C=N/NC(=O)c3ccc(C(=O)N/N=C/c4ccc(/C=C/c5cn6ccccc6[n+]5C)cc4)cc3)cc2)cn2ccccc21 | – | > 100 | – | > 100 | – | > 100 | – | > 100 | – | > 100 | – | > 100 | – | > 100 | – | > 100 | – | > 100 | – | –
14 | COc1cc2ccc(CC(N)=O)cc2cc1OC | – | > 100 | – | > 100 | – | > 100 | – | – | – | > 100 | – | > 100 | – | – | – | – | – | > 100 | > 100 | –
15 | COC1=CC(=O)NCCN1 | – | > 100 | – | 45.2 | – | > 100 | – | – | – | > 100 | – | > 100 | – | > 100 | – | – | – | > 100 | > 100 | –
16 | CN1C(=O)C(=CN(C)c2ccccc2)C(=O)N(C)C1=O | – | > 100 | – | > 100 | – | > 100 | – | – | – | > 100 | – | > 100 | – | > 100 | – | – | – | > 100 | > 100 | –
17 | CC(=O)NC1=C(Sc2ccc(Cl)cc2)C(=O)c2ccccc2C1=O | – | 18.9 | – | 14 | – | – | – | 4.95 | – | 4.16 | – | 16.6 | – | 27.8 | – | 6.31 | – | 23.9 | 4.65 | –
18 | O=S(=O)(NCCO)c1cc[c]([Sb](=[O])([OH])[OH])cc1 | > 100 | > 100 | > 100 | > 100 | – | – | > 100 | > 100 | > 100 | > 100 | > 100 | > 100 | > 100 | > 100 | > 100 | > 100 | > 100 | > 100 | > 100 | > 100
19 | Cc1cnc(SCCN2CCN(C)CC2)nc1-c1cc2ccccc2s1 | – | – | – | 18.6 | – | 24.6 | – | – | – | 24.3 | – | 32.2 | – | 26.9 | – | – | – | – | 22.7 | –
20 | CCN(Cc1cccc(F)c1F)c1ccc(CO)c(Cl)c1 | – | – | 15.8 | 30.7 | 12.4 | 40.5 | 0.07 | 0.414 | 13.6 | 32.2 | 15.8 | 31.6 | 5.09 | 24.6 | 17.5 | 52.2 | 0.058 | 0.228 | 14.9 | 1.89
21 | COc1cc2c(cc1OC)[C@@H]([C@H](O)c1ccccc1)NCC2 | – | > 100 | – | > 100 | – | > 100 | – | – | – | > 100 | – | > 100 | – | > 100 | – | – | – | > 100 | > 100 | –
22 | Cc1cc(NS(=O)(=O)c2ccc(Nc3c4ccccc4nc4c(C(=O)Nc5ccc(S(=O)(=O)N=C(N)N)cc5)ccc(Cl)c34)cc2)no1 | – | > 100 | – | 36.8 | – | 73.2 | – | – | – | > 100 | – | > 100 | – | > 100 | – | – | – | > 100 | 72.9 | –
23 | COc1ccc2c(c1)CCN1C3=C(CCC3)C(=O)C[C@@H]21 | – | > 100 | – | > 100 | – | > 100 | – | – | – | > 100 | – | > 100 | – | > 100 | – | – | – | > 100 | > 100 | –
